The record followed here is patent publication US9434688B2, “Indole derivatives as selective androgen receptor modulators (SARMS)” (Janssen Pharmaceutica, NV, priority 2004, dated 2016).

For experiment [1], the target named is T1, androgen receptor LBD (Panvera) (Rattus norvegicus, UniProt P15207).
T1 construct: 5 pmol androgen receptor LBD (Panvera); purchased Panvera
T1 sequence (P15207 651-882 limits assumed): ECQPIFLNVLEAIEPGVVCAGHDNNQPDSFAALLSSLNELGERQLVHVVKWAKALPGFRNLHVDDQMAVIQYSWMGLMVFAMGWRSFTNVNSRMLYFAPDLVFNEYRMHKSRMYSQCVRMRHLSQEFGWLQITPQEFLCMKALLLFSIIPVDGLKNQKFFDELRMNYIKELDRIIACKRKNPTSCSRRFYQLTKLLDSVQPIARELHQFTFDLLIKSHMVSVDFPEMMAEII
The experiment can be described thus: Androgen Receptor Filtration Binding Assay (PANVERA). Conditions: [3H] R1881 tracer. The procedure: The assay was run on a 96 well plate with each well filled with a total reaction volume 150 μL, of a solution containing 5 pmol androgen receptor LBD (Panvera) or 30 μL of freshly prepared rat cytosol, 0.5 nM [^3H] […] (TED buffer contains 10 mM Tris.HCl pH 7.4, 1 mM sodium molybdate, 1.5 mM EDTA, 1 mM DTT and 10% (v/v) glycerol.)
On day one, the solution containing receptor, tracer and TED buffer was distributed into a 96 well plate. Diluted test compound or control vehicle was then added to individual wells and the plate incubated at 4° C. overnight.
On day two, to each well was then added 20 μL human γ-globulin (ICN 823102), prepared at 25 mg/ml in TE pH 8.0, and 55 μL 40% polyethylene glycol 8000 (JT Baker U222-08), prepared in TE pH 8.0. The plate was incubated at 4° C. for 60 minutes. During incubation, the harvester was rinsed with 10% PEG 8000, prepared in TE pH 8.0, and a GF/C Unifilter-96 was pre-wet with 10% PEG. The binding reaction was filtered, the retentate was washed three times with 10% PEG and dried under vacuum for a couple of minutes, then dried at 50° C. for 5 min and the plate was bottom sealed. Next, 25 μL of Microscint-20 (Packard) was added to the filter wells and the plate was top sealed. The plate wells were then counted on a TopCount (Packard).
Counts per well were measured and IC50s determined by linear regression.

Experiment [2] concerns the target T2, androgen receptor (Rattus norvegicus, UniProt P15207).
T2 sequence (P15207 1-902): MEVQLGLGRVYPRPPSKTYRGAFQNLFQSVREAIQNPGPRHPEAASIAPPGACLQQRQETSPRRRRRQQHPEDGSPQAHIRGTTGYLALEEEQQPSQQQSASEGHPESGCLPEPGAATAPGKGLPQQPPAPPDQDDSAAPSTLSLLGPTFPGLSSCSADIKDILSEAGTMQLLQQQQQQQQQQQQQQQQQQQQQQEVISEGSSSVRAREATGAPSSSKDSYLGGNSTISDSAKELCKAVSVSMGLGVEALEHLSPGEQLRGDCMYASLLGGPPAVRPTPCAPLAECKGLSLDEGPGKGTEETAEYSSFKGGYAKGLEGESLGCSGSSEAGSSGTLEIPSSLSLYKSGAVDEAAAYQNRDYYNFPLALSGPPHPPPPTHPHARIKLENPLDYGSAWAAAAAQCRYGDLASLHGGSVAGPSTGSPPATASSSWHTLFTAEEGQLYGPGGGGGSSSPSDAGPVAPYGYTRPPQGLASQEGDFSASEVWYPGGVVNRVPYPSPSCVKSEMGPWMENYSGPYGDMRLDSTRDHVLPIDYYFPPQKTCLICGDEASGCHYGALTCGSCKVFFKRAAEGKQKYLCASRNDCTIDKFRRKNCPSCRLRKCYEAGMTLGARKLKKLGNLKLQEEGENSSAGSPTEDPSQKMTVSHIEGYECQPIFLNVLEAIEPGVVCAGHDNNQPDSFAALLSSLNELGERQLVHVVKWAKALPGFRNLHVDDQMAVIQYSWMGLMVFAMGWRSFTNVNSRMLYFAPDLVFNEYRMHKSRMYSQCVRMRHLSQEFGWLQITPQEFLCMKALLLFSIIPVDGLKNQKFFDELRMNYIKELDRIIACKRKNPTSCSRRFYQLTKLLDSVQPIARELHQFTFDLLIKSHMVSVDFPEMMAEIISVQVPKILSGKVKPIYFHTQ
The experiment can be described thus: Androgen Receptor Binding Using Rat Ventral Prostate Cytosol. Conditions: Rat Cytosol; Concentration 1000 nM. On the set-up: from tissue; host or cells: ventral prostate cytosol of castrated male Sprague Dawley or Wistar rats. The method, then: Rat Prostate Cytosol Preparation:
Male Sprague Dawley or Wistar rats (Charles River, 200-300 g) were used for each preparation. The day before preparing the cytosol, the rats were castrated using standard surgical procedures.
The rats were euthanized by carbon dioxide asphyxiation. The rat prostates were quickly removed and placed on ice in pre-chilled, pre-weighed 50 mL plastic tubes. No more than five prostates were placed into one tube. The tubes were then weighed and the prostate tissue wet weights calculated.
To the chilled prostate tissue was then added […] of chilled homogenization buffer. The homogenization buffer was freshly prepared by mixing 10 mM Tris.HCl, pH 7.4, 1 mM sodium molybdate, 1.5 mM EDTA, 1 mM dithiothreitol, 10% (v/v) glycerol and 1% protease inhibitor cocktail (Sigma P 8340).
The prostate tissue was homogenized in a cold room using a pre-chilled Polytron PT3000 homogenizer (Brinkmann). Homogenization was performed at a speed setting of 20, three times for 10 sec bursts. The tubes containing the prostate tissue was kept on ice while homogenizing. The homogenate was allowed to rest on ice for 20 sec between bursts.
The homogenate was then placed into pre-chilled 3 mL polycarbonate ultracentrifuge tubes and centrifuged in the TLA-100 rotor of a TL-100 ultracentrifuge for 12 min at 100,000 rpm at 4° C. The resulting supernatant was stored in 1 mL aliquots at −80° C. until needed.
Binding to the androgen receptor was determined according to the protocol described in Example 86 using the above prepared rat cytosol.
% Inhibition was determined by testing dilutions of the test compound (usually duplicates of 10 μM) in the binding assay. Counts per well were measured and percents of inhibition determined. […] Counts per well were measured and IC50s determined by linear regression.

What is called IC50 is the point on the concentration scale where inhibition reaches its midpoint. Broadly, the % Inhibition is the share of the control response that was lost under treatment. The low end stands for little suppression, the high end for strong suppression. `Cc1ccc(C(=O)OCC(C)(O)c2cc3cc([N+](=O)[O-])c(C(F)(F)F)cc3[nH]2)cc1` (racemic) [compound 69] displayed an IC50 in experiment [1] of 1200 nM. Moreover, the “% Inhibition” value in experiment [2] amounted to 31%.
